Test results taken from patent US11618767B2, “Carboxy substituted glucocorticoid receptor agonists” (Eli Lilly and Company, priority 2021, dated 2023).

Target: T1, GR-LBD (Homo sapiens, UniProt P04150)
T1 construct: purchased Life Technologies A15899
T1 sequence (P04150 524-758 limits assumed): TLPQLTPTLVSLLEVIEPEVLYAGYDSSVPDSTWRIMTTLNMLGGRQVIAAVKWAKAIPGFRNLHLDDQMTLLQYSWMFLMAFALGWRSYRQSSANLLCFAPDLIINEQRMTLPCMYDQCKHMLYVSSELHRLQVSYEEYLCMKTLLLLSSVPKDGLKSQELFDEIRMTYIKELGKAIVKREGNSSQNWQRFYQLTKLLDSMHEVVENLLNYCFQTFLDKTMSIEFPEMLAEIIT
Assay: hGR CoActivator Recruitment Assay (LanthaScreen TR-Fret GR Coactivator Assay)
Format: biochemical
Details: TR-FRET emission ratio 520/490; 10-point serial dilution, top concentration 200 nM; Fluorescein-SRC1-4 coactivator peptide; read-out: relative IC50
Description: hGR CoActivator Recruitment Assay The activity of glucocorticoid compounds was measured using the LanthaScreen TR-Fret GR Coactivator Assay from Life Technologies (A15899). The compounds were acoustically transferred to an assay plate in a 3-fold 10-point serial dilution with a top concentration of 200 nM. Ten microliters of a 2× solution of GR-LBD was added to the compound plate and incubated for 10 min. Then ten microliters of a 2× solution of Fluoresein-SRC1-4 and Tb labelled anti-GST antibody was added to the plate. The plate was incubated in the dark for two hours and then read on an Envision plate reader, with excitation at 340 nm and emission at 520 nm (Fluorescein) and 490 nm (Terbium). The emission ratio of 520/490 was analyzed in Genedata. To obtain percent activity, the data was compared to a negative control of DMSO and positive control of […] dexamethasone.

| Structure (SMILES) | IC50 |
| --- | --- |
| C[C@]12C=CC(=O)C=C1CC[C@@H]1[C@@H]2[C@@H](O)C[C@@]2(C)[C@H]1C[C@H]1O[C@@H](c3ccc(Cc4ccc(C(=O)O)cc4)cc3F)O[C@]12C(=O)CO (single isomer, unassigned) [Example 1] | 0.00214 µM |
| C[C@]12C=CC(=O)C=C1CC[C@@H]1[C@@H]2[C@@H](O)C[C@@]2(C)[C@H]1C[C@H]1O[C@H](c3ccc(Cc4ccc(C(=O)O)cc4)cc3F)O[C@]12C(=O)CO (single isomer, unassigned) [Example 2] | 0.0045 µM |
| Cc1ccc(OCc2cccc(C(=O)O)c2)c(F)c1[C@@H]1O[C@@H]2C[C@H]3[C@@H]4CCC5=CC(=O)C=C[C@]5(C)[C@H]4[C@@H](O)C[C@]3(C)[C@]2(C(=O)CO)O1 [Example 3, 3-((2-Fluoro-3-((6aR,6bS,7S,8aS,8bS,10R,11aR,12aS,12bS)-7-hydroxy-8b-(2-hydroxyacetyl)-6a, 8a-dimethyl-4-oxo-2,4,6a,6b,7,8,8a,8b,11a,12,12a,12b-dodecahydro-1H-naphtho[2′,1′:4,5]indeno[1,2-d][1,3]dioxol-10-yl)-4-methylphenoxy)methyl)benzoic Acid] | < 0.2 µM |
| Cc1ccc(OCc2cccc(C(=O)O)c2)c(F)c1[C@H]1O[C@@H]2C[C@H]3[C@@H]4CCC5=CC(=O)C=C[C@]5(C)[C@H]4[C@@H](O)C[C@]3(C)[C@]2(C(=O)CO)O1 [Example 4, 3-((2-Fluoro-3-((6aR,6bS,7S,8aS,8bS,10 S,11aR,12a5,12bS)-7-hydroxy-8b-(2-hydroxyacetyl)-6a, 8a-dimethyl-4-oxo-2,4,6a,6b,7,8,8a, 8b,11a,12,12a,12b-dodecahydro-1H-naphtho[2′,1′:4,5]indeno[1,2-d][1,3]dioxol-10-yl)-4-methylphenoxy)methyl)benzoic Acid] | < 0.2 µM |
| C[C@]12C=CC(=O)C=C1CC[C@@H]1[C@@H]2[C@@H](O)C[C@@]2(C)[C@H]1C[C@H]1O[C@@H](c3ccc(Oc4ccc(C(=O)O)cc4)cc3)O[C@]12C(=O)CO [Example 5] | < 0.2 µM |
| C[C@]12C=CC(=O)C=C1CC[C@@H]1[C@@H]2[C@@H](O)C[C@@]2(C)[C@H]1C[C@H]1O[C@H](c3ccc(Oc4ccc(C(=O)O)cc4)cc3)O[C@]12C(=O)CO [Example 6] | < 0.2 µM |
| C[C@]12C=CC(=O)C=C1CC[C@@H]1[C@@H]2[C@@H](O)C[C@@]2(C)[C@H]1C[C@H]1O[C@@H](c3ccc(Oc4cccc(C(=O)O)c4)cc3)O[C@]12C(=O)CO [Example 7] | < 0.2 µM |

Next, values leading:

| IC50 | Structure (SMILES) |
| --- | --- |
| < 0.2 µM | C[C@]12C=CC(=O)C=C1CC[C@@H]1[C@@H]2[C@@H](O)C[C@@]2(C)[C@H]1C[C@H]1O[C@H](c3ccc(Oc4cccc(C(=O)O)c4)cc3)O[C@]12C(=O)CO [Example 8] |
| < 0.2 µM | C[C@]12C=CC(=O)C=C1CC[C@@H]1[C@@H]2[C@@H](O)C[C@@]2(C)[C@H]1C[C@H]1O[C@@H](c3ccc(Cc4cccc(C(=O)O)c4)cc3F)O[C@]12C(=O)CO [Example 9] |
| > 0.2 µM | C[C@]12C=CC(=O)C=C1CC[C@@H]1[C@@H]2[C@@H](O)C[C@@]2(C)[C@H]1C[C@H]1O[C@H](c3ccc(Cc4cccc(C(=O)O)c4)cc3F)O[C@]12C(=O)CO [Example 10] |
| < 0.2 µM | COc1ccc(OCc2cccc(C(=O)O)c2)c(F)c1[C@@H]1O[C@@H]2C[C@H]3[C@@H]4CCC5=CC(=O)C=C[C@]5(C)[C@H]4[C@@H](O)C[C@]3(C)[C@]2(C(=O)CO)O1 [Example 11] |
| < 0.2 µM | COc1ccc(OCc2cccc(C(=O)O)c2)c(F)c1[C@H]1O[C@@H]2C[C@H]3[C@@H]4CCC5=CC(=O)C=C[C@]5(C)[C@H]4[C@@H](O)C[C@]3(C)[C@]2(C(=O)CO)O1 [Example 12] |
| > 0.2 µM | COc1ccc(OCc2ccccc2C(=O)O)c(F)c1[C@@H]1O[C@@H]2C[C@H]3[C@@H]4CCC5=CC(=O)C=C[C@]5(C)[C@H]4[C@@H](O)C[C@]3(C)[C@]2(C(=O)CO)O1 [Example 13] |
| < 0.2 µM | COc1ccc(OCc2ccccc2C(=O)O)c(F)c1[C@H]1O[C@@H]2C[C@H]3[C@@H]4CCC5=CC(=O)C=C[C@]5(C)[C@H]4[C@@H](O)C[C@]3(C)[C@]2(C(=O)CO)O1 [Example 14] |
| < 0.2 µM | Cc1ccc(OCc2ccccc2C(=O)O)c(F)c1[C@H]1O[C@@H]2C[C@H]3[C@@H]4CCC5=CC(=O)C=C[C@]5(C)[C@H]4[C@@H](O)C[C@]3(C)[C@]2(C(=O)CO)O1 [Example 15] |
